pIC50: −log10 of the molar value.
Target: T1, SOS1 (Homo sapiens, UniProt Q07889)
T1 sequence (Q07889 1-1333): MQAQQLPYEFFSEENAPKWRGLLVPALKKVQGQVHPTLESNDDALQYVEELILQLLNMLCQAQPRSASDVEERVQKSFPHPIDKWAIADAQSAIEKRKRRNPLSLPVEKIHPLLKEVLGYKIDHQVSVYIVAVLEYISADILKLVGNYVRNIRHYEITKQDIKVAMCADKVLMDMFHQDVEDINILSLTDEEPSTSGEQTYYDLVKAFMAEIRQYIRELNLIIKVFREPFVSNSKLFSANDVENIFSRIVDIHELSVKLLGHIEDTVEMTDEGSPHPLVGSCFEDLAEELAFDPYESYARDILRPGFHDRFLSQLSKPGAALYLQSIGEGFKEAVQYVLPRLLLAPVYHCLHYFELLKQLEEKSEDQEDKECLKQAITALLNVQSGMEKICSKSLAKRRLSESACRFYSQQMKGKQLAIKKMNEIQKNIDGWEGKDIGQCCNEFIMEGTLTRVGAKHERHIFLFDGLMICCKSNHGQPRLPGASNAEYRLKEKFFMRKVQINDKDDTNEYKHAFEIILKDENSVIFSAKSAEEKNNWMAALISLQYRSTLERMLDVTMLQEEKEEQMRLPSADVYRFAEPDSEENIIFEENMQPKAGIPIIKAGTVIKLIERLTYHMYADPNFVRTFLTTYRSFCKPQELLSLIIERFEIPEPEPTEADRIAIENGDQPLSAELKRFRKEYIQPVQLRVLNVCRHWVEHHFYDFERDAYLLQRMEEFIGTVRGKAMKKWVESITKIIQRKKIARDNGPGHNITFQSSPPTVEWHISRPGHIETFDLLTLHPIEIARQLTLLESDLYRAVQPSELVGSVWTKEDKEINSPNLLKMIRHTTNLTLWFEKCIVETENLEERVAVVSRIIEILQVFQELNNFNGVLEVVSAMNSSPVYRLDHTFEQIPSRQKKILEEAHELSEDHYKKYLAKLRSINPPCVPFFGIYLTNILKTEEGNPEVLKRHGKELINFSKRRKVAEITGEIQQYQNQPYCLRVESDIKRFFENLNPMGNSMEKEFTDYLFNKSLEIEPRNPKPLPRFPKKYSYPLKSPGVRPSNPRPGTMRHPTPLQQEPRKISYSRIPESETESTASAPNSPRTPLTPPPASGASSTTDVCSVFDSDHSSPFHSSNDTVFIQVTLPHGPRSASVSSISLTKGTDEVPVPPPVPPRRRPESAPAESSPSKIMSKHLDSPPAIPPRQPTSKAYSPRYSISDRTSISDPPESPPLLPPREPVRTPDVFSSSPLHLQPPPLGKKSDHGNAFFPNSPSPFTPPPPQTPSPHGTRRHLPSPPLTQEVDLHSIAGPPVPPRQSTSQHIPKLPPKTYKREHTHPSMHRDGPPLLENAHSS
Test: biochemical

| Compound | pIC50 |
| --- | --- |
| C[C@@H](Nc1nnc(N2CCC(F)(F)CC2)c2cc(=O)n(C3(C)CC3)cc12)c1cccc(C(F)F)c1F [Example 23, (R)-4-((1-(3-(difluoromethyl)-2-fluorophenyl)ethyl)amino)-1-(4,4-difluoropiperidin-1-yl)-6-(1-methylcyclopropyl) pyrido[3,4-d]pyridazin-7(6H)-one] | 7.65 |
| Cc1c(C#N)cccc1[C@@H](C)Nc1nnc(N2CCC[C@H]2C)c2cc(=O)n(C3(C)CC3)cc12 [Example 85, 2-methyl-3-((R)-1-((6-(1-methylcyclopropyl)-1-((R)-2-methylpyrrolidin-1-yl)-7-oxo-6,7-dihydropyrido[3,4-d]pyridazin-4-yl)amino)ethyl)benzonitrile] | 7.93 |
| C[C@@H](Nc1nnc(N2CC3CC2CO3)c2cc(=O)n(C3(C)CC3)cc12)c1cccc(C(F)F)c1F (stereo partly drawn) [Example 201, 1-(2-oxa-5-azabicyclo[2.2.1]heptan-5-yl)-4-(((R)-1-(3-(difluoromethyl)-2-fluorophenyl)ethyl)amino)-6-(1-methylcyclopropyl) pyrido[3,4-d]pyridazin-7(6H)-one] | 8.28 |
| Cc1c([C@@H](C)Nc2nnc(N3CC(F)(F)C3)c3cc(=O)n(C4CC4)cc23)cccc1C(F)(F)F [Example 54, (R)-6-cyclopropyl-1-(3,3-difluoroazetidin-1-yl)-4-((1-(2-methyl-3-(trifluoromethyl)phenyl)ethyl)amino)pyr ido[3,4-d]pyridazin-7(6H)-one] | 7.30 |
| CCN(CC)c1nnc(N[C@H](C)c2cccc(C(F)F)c2F)c2cn(C3(C)CC3)c(=O)cc12 [Example 29, (R)-1-(diethylamino)-4-(((R)1-(3-(difluoromethyl)-2-fluorophenyl)ethyl)amino)-6-(1-methylcyclopropyl) pyrido[3,4-d]pyridazin-7(6H)-one] | 7.97 |
| C[C@@H](Nc1nnc(N2CCN(C3CCCC3)CC2)c2cc(=O)n(N3CC4CCCC4C3)cc12)c1cccc(C(F)F)c1F (stereo partly drawn) [Example 140, 4-(((R)-1-(3-(difluoromethyl)-2-fluorophenyl)ethyl)amino)-6-(hexahydrocyclopenta[c]pyrrol-2(1H)-yl)-1-(4-cyclopentylpiperazin-1-yl)-pyrido[3,4-d]pyridazin-7(6H)-one] | 8.07 |
| Cc1c(C#N)cccc1[C@@H](C)Nc1nnc(N2CCC2)c2cc(=O)n(C3(C)CC3)cc12 [Example 70, (R)-3-(1-((1-(azetidin-1-yl)-6-(1-methylcyclopropyl)-7-oxo-6,7-dihydropyrido[3,4-d]pyridazin-4-yl)amino)ethyl)-2-methylbenzonitrile] | 8.17 |
| Cc1c([C@@H](C)Nc2nnc(N3CCN(C)CC3)c3cc(=O)n(C4CC4)cc23)cccc1C(F)(F)F [Example 86, (R)-6-cyclopropyl-4-((1-(2-methyl-3-(trifluoromethyl)phenyl)ethyl)amino)-1-(4-methylpiperazin-1-yl)pyrido[3,4-d]pyridazin-7(6H)-one] | 8.44 |
| C[C@@H](Nc1nnc(N2CCCC2)c2cc(=O)n(C3CC3)cc12)c1cccc(C(F)F)c1F [Example 4, (R)-6-cyclopropyl-4-((1-(3-(difluoromethyl)-2-fluorophenyl)ethyl)amino)-1-(pyrrolidin-1-yl) pyrido[3,4-d]pyridazin-7(6H)-one] | 8.31 |
| C[C@@H](Nc1nnc(N2CCCCC2)c2cc(=O)n(C3(C)CC3)cc12)c1cccc(C(F)F)c1F [Example 6, (R)-4-((1-(3-(difluoromethyl)-2-fluorophenyl)ethyl)amino)-6-(1-methylcyclopropyl)-1-(piperidin-1-yl)pyrido[3,4-d]pyridazin-7(6H)-one] | 7.83 |
| C[C@@H](Nc1nnc(N2CC3CC2CO3)c2cc(=O)n(C3(C)CC3)cc12)c1cccc(C(F)(F)F)c1F (stereo partly drawn) [Example 175, 1-(2-oxa-5-azabicyclo[2.2.1]heptan-5-yl)-4-(((R)-1-(2-fluoro-3-(trifluoromethyl)phenyl)ethyl)amino)-6-(1-methylcyclopropyl) pyrido[3,4-d]pyridazin-7(6H)-one] | 7.89 |
